Laboratory results published in ChEMBL document CHEMBL1201862, “PubChem BioAssay data set” (2004).
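Tested at 5 concentrations; 48 h exposure; 96-well plates; endpoints linearly interpolated, else capped at highest concentration. Abbreviation: GI50, concentration required for 50% inhibition of growth.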 Calls of active or inactive are those of the source. Rule as the data show it: active = GI50 up to about 1.1 µM and inactive = higher.

How the values were obtained:
Assay in all cases: inhibition of tumour cell growth, NCI panel, 48 h
SK-MEL-5 = system: SK-MEL-5
LOX IMVI = system: LOX IMVI
SK-MEL-2 = system: SK-MEL-2
SW-620 = system: SW-620
SNB-19 = system: SNB-19
NCI-H522 = system: NCI-H522
UACC-257 = system: UACC-257
SN12C = system: SN12C
UACC-62 = system: UACC-62
NCI-H460 = system: NCI-H460
SF-268 = system: SF-268
HCT-15 = system: HCT-15
KM12 = system: KM12
OVCAR-8 = system: OVCAR-8
EKVX = system: EKVX
OVCAR-4 = system: OVCAR-4
CAKI-1 = system: CAKI-1
RPMI-8226 = system: RPMI-8226
HCC 2998 = system: HCC 2998
NCI-H226 = system: NCI-H226

Row | Compound | GI50 (SK-MEL-5) | GI50 (LOX IMVI) | GI50 (SK-MEL-2) | GI50 (SW-620) | GI50 (SNB-19) | GI50 (NCI-H522) | GI50 (UACC-257) | GI50 (SN12C) | GI50 (UACC-62) | GI50 (NCI-H460) | GI50 (SF-268) | GI50 (HCT-15) [µM] | GI50 (KM12) | GI50 (OVCAR-8) | GI50 (EKVX) | GI50 (OVCAR-4) | GI50 (CAKI-1) | GI50 (RPMI-8226) | GI50 (HCC 2998) | GI50 (NCI-H226)
1 | COc1nc(C#CCC(C)O)nc(OC)n1 (stereo not given) | 18.8 µM (inactive) | 14.2 µM (inactive) | 33.7 µM (inactive) | 23.1 µM (inactive) | > 100 µM (inactive) | 17.7 µM (inactive) | 30.9 µM (inactive) | 19.5 µM (inactive) | 15.1 µM (inactive) | 39.4 µM (inactive) | 21.3 µM (inactive) | 18.6 | 24.5 µM (inactive) | 17.1 µM (inactive) | 20 µM (inactive) | 18.8 µM (inactive) | 17.6 µM (inactive) | – | – | –
2 | Cc1cn(C2CC(N)C(C(=O)NCC(=O)O)O2)c(=O)[nH]c1=O (stereo not given) | > 100 µM (inactive) | > 100 µM (inactive) | – | > 100 µM (inactive) | > 100 µM (inactive) | > 100 µM (inactive) | – | > 100 µM (inactive) | > 100 µM (inactive) | > 100 µM (inactive) | > 100 µM (inactive) | > 100 | > 100 µM (inactive) | – | > 100 µM (inactive) | > 100 µM (inactive) | > 100 µM (inactive) | > 100 µM (inactive) | > 100 µM (inactive) | > 100 µM (inactive)
3 | COC1OC2COC(c3ccccc3)OC2C(OC(=S)c2ccccc2)C1O (stereo not given) | > 100 µM (inactive) | 7.76 µM (inactive) | 51.1 µM (inactive) | > 100 µM (inactive) | > 100 µM (inactive) | – | > 100 µM (inactive) | 46.3 µM (inactive) | > 100 µM (inactive) | 65.9 µM (inactive) | 27 µM (inactive) | > 100 | – | 16.9 µM (inactive) | 0.358 µM (active) | > 100 µM (inactive) | 41 µM (inactive) | 13.9 µM (inactive) | – | 25.1 µM (inactive)
4 | N#CN=C(NCCO)NCCO | – | > 100 µM (inactive) | > 100 µM (inactive) | > 100 µM (inactive) | > 100 µM (inactive) | > 100 µM (inactive) | > 100 µM (inactive) | > 100 µM (inactive) | > 100 µM (inactive) | > 100 µM (inactive) | > 100 µM (inactive) | > 100 | > 100 µM (inactive) | > 100 µM (inactive) | > 100 µM (inactive) | > 100 µM (inactive) | > 100 µM (inactive) | > 100 µM (inactive) | > 100 µM (inactive) | > 100 µM (inactive)
5 | C=CCc1c(O)c2c(c3oc(=O)cc(C)c13)CC(C)O2 (stereo not given) | > 100 µM (inactive) | 46.3 µM (inactive) | > 100 µM (inactive) | > 100 µM (inactive) | > 100 µM (inactive) | > 100 µM (inactive) | > 100 µM (inactive) | > 100 µM (inactive) | > 100 µM (inactive) | 52.5 µM (inactive) | > 100 µM (inactive) | > 100 | – | 65.3 µM (inactive) | > 100 µM (inactive) | > 100 µM (inactive) | > 100 µM (inactive) | 60.8 µM (inactive) | > 100 µM (inactive) | 41.5 µM (inactive)
6 | N#Cc1c(OCCF)c2ccccc2n2c1nc1ccccc12 | 49.5 µM (inactive) | 31.3 µM (inactive) | > 100 µM (inactive) | > 100 µM (inactive) | 29.2 µM (inactive) | 19.6 µM (inactive) | 93.3 µM (inactive) | – | 48.6 µM (inactive) | 21.7 µM (inactive) | 27 µM (inactive) | 32.7 | > 100 µM (inactive) | 42.3 µM (inactive) | 99.1 µM (inactive) | 32.3 µM (inactive) | 52.2 µM (inactive) | > 100 µM (inactive) | > 100 µM (inactive) | 63.5 µM (inactive)
7 | COC(=O)C(C(=O)C(=O)Nc1nnc(S)[nH]1)c1csc(-n2nc(-c3ccccc3)cc2-c2ccccc2)n1 (stereo not given) | – | > 100 µM (inactive) | – | > 100 µM (inactive) | > 100 µM (inactive) | > 100 µM (inactive) | > 100 µM (inactive) | > 100 µM (inactive) | > 100 µM (inactive) | > 100 µM (inactive) | > 100 µM (inactive) | > 100 | > 100 µM (inactive) | > 100 µM (inactive) | 33.3 µM (inactive) | > 100 µM (inactive) | > 100 µM (inactive) | > 100 µM (inactive) | > 100 µM (inactive) | > 100 µM (inactive)
8 | COc1ccc(NC(=O)CC(=O)N2N=C(N3c4ccccc4Sc4ccccc43)CC2c2ccccc2)cc1 (stereo not given) | > 100 µM (inactive) | – | > 100 µM (inactive) | > 100 µM (inactive) | > 100 µM (inactive) | > 100 µM (inactive) | > 100 µM (inactive) | > 100 µM (inactive) | > 100 µM (inactive) | > 100 µM (inactive) | 23.4 µM (inactive) | > 100 | > 100 µM (inactive) | > 100 µM (inactive) | > 100 µM (inactive) | > 100 µM (inactive) | > 100 µM (inactive) | > 100 µM (inactive) | > 100 µM (inactive) | > 100 µM (inactive)
